In US4725683A, “Fluorophenoxyphenoxypropionates and derivatives thereof” (The Dow Chemical Company, priority 1985, dated 1988):

Legend:
Test in all cases: Preemergent activity
Type in all cases: in vivo
Yellow Foxtail = conditions: Setaria, pre-emergence, read-out: Preemergence Control; for pest or weed control at 140 g/ha: 0.14 kgs/hectare; for pest or weed control at 280 g/ha: 0.28 kgs/hectare; for pest or weed control at 560 g/ha: 0.56 kgs/hectare; for pest or weed control at 1120 g/ha: 1.12 kgs/hectare; for pest or weed control at 70 g/ha: 0.07 kgs/hectare
Protocol: (§1) In a representative operation, 2-[4-(2-fluoro-4-trifluoromethylphenoxy)phenoxy]propionic acid methyl ester, to be utilized in a series of tests, is dissolved in acetone to one half of the final volume (twice the final concentration) to be used and the acetone solution in each case is admixed with an equal volume of water containing 0.1 percent by weight of Tween-20 surface active material (Tween-20 is a trademark of Atlas Chemical Company). The composition, generally in the nature of an emulsion, was employed to treat separate respective seed beds of sandy loam soil of good nutrient content wherein each seed bed contained separate groups of good viable seeds, each group being of one of a known plant species. The various beds were positioned side by side and exposed to substantially identical conditions of temperature and light. Each bed was maintained so as to prevent any interaction with the test compound in different seed beds. Each seed bed was treated with the composition as a spray employing conventional spraying equipment to deposit a predetermined amount of the compound uniformly throughout the surface of the bed. Another seed bed was treated only with the acetone-Tween-20 water mixture with no chemical added to serve as a control.

Barnyard Grass = conditions: Echinochloa crus-galli, pre-emergence, read-out: Preemergence Control; for pest or weed control at 140 g/ha: 0.14 kgs/hectare; for pest or weed control at 280 g/ha: 0.28 kgs/hectare; for pest or weed control at 560 g/ha: 0.56 kgs/hectare; for pest or weed control at 1120 g/ha: 1.12 kgs/hectare; for pest or weed control at 70 g/ha: 0.07 kgs/hectare
Protocol: as §1

Wheat = conditions: Triticum aestivum, pre-emergence, read-out: Preemergence Control; for plant injury at 70 g/ha: 0.07 kgs/hectare; for plant injury at 140 g/ha: 0.14 kgs/hectare; for plant injury at 280 g/ha: 0.28 kgs/hectare; for plant injury at 560 g/ha: 0.56 kgs/hectare; for plant injury at 1120 g/ha: 1.12 kgs/hectare
Protocol: as §1

Wild Oats = conditions: Avena fatua, pre-emergence, read-out: Preemergence Control; for pest or weed control at 140 g/ha: 0.14 kgs/hectare; for pest or weed control at 280 g/ha: 0.28 kgs/hectare; for pest or weed control at 560 g/ha: 0.56 kgs/hectare; for pest or weed control at 1120 g/ha: 1.12 kgs/hectare; for pest or weed control at 70 g/ha: 0.07 kgs/hectare
Protocol: as §1

Johnson Grass = conditions: Sorghum halepense, pre-emergence, read-out: Preemergence Control; for pest or weed control at 140 g/ha: 0.14 kgs/hectare; for pest or weed control at 280 g/ha: 0.28 kgs/hectare; for pest or weed control at 560 g/ha: 0.56 kgs/hectare; for pest or weed control at 1120 g/ha: 1.12 kgs/hectare; for pest or weed control at 70 g/ha: 0.07 kgs/hectare
Protocol: as §1

Compound | pest or weed control at 140 g/ha (Yellow Foxtail) | pest or weed control at 280 g/ha (Yellow Foxtail) | pest or weed control at 560 g/ha (Yellow Foxtail) | pest or weed control at 1120 g/ha (Yellow Foxtail) | pest or weed control at 140 g/ha (Barnyard Grass) | pest or weed control at 280 g/ha (Barnyard Grass) | pest or weed control at 560 g/ha (Barnyard Grass) | pest or weed control at 1120 g/ha (Barnyard Grass) | plant injury at 70 g/ha (Wheat) | plant injury at 140 g/ha (Wheat) | plant injury at 280 g/ha (Wheat) | plant injury at 560 g/ha (Wheat) | plant injury at 1120 g/ha (Wheat) | pest or weed control at 140 g/ha (Wild Oats) | pest or weed control at 280 g/ha (Wild Oats) | pest or weed control at 560 g/ha (Wild Oats) | pest or weed control at 1120 g/ha (Wild Oats) | pest or weed control at 140 g/ha (Johnson Grass) | pest or weed control at 280 g/ha (Johnson Grass) | pest or weed control at 560 g/ha (Johnson Grass) | also measured
COc1cccc(NC(=O)C(C)Oc2ccc(Oc3ccc(Br)cc3F)cc2)c1 (stereo not drawn) | 0% | 20% | 80% | 100% | 0% | 100% | 100% | 100% | 0% | 0% | 0% | 0% | 0% | 0% | 0% | 40% | 30% | 0% | 30% | 30% | pest or weed control at 1120 g/ha (Johnson Grass): 100%
CCCCCCCCOC(=O)C(C)Oc1ccc(Oc2ccc(Br)cc2F)cc1 (stereo not drawn) [O(CH2)7 CH3] | 0% | 80% | 90% | 100% | 95% | 100% | 100% | 100% | 0% | 0% | 0% | 0% | 90% | 0% | 100% | 100% | 100% | 0% | 100% | 100% | pest or weed control at 70 g/ha (Yellow Foxtail): 0%; pest or weed control at 70 g/ha (Barnyard Grass): 9%; pest or weed control at 70 g/ha (Wild Oats): 0%; pest or weed control at 70 g/ha (Johnson Grass): 0%; pest or weed control at 1120 g/ha (Johnson Grass): 100%
CCCCOC(=O)C(C)Oc1ccc(Oc2ccc(Br)cc2F)cc1 (stereo not drawn) [O(CH2)3 CH3, Propionic acid: 2-(4-(4-bromo-2-fluorophenoxy)phenoxy), n-butyl ester] | 40% | 95% | 100% | 100% | 70% | 100% | 100% | 100% | 0% | 0% | 0% | 30% | 30% | 0% | 50% | 80% | 100% | 0% | 65% | 100% | pest or weed control at 70 g/ha (Yellow Foxtail): 0%; pest or weed control at 70 g/ha (Barnyard Grass): 0%; pest or weed control at 70 g/ha (Wild Oats): 0%; pest or weed control at 70 g/ha (Johnson Grass): 0%; pest or weed control at 1120 g/ha (Johnson Grass): 100%
C=CCNC(=O)C(C)Oc1ccc(Oc2ccc(Br)cc2F)cc1 (stereo not drawn) | 0% | 30% | 90% | 100% | 0% | 100% | 100% | 100% | 0% | 0% | 0% | 0% | 0% | 80% | 90% | 80% | 90% | 0% | 50% | 90% | pest or weed control at 1120 g/ha (Johnson Grass): 100%
C=CCOC(=O)C(C)Oc1ccc(Oc2ccc(Br)cc2F)cc1 (stereo not drawn) [OCH2 CCH2] | 30% | 90% | 100% | 100% | 100% | 100% | 100% | 100% | 0% | 0% | 0% | 0% | 70% | 0% | 40% | 70% | 70% | 0% | 80% | 90% | pest or weed control at 70 g/ha (Yellow Foxtail): 30%; pest or weed control at 70 g/ha (Barnyard Grass): 95%; pest or weed control at 70 g/ha (Wild Oats): 0%; pest or weed control at 70 g/ha (Johnson Grass): 0%; pest or weed control at 1120 g/ha (Johnson Grass): 100%
